This note sets out measurements from ChEMBL document CHEMBL5352478, “Novel pyridine-containing histone deacetylase inhibitors strongly arrest proliferation, induce apoptosis and modulate miRNAs in cancer cells” (Eur J Med Chem, 2023).

One assay addresses Histone deacetylase 1 (Homo sapiens, UniProt Q13547).
For another assay, the target named is Histone deacetylase 3 (Homo sapiens, UniProt O15379).
The next assay deals with Histone deacetylase 4 (Homo sapiens, UniProt P56524). The note with it: for pIC50: read-out: IC50.
For assay [1], the target named is T1, Protein deacetylase HDAC6 (Homo sapiens, UniProt Q9UBN7).
T1 sequence (Q9UBN7 whole entry): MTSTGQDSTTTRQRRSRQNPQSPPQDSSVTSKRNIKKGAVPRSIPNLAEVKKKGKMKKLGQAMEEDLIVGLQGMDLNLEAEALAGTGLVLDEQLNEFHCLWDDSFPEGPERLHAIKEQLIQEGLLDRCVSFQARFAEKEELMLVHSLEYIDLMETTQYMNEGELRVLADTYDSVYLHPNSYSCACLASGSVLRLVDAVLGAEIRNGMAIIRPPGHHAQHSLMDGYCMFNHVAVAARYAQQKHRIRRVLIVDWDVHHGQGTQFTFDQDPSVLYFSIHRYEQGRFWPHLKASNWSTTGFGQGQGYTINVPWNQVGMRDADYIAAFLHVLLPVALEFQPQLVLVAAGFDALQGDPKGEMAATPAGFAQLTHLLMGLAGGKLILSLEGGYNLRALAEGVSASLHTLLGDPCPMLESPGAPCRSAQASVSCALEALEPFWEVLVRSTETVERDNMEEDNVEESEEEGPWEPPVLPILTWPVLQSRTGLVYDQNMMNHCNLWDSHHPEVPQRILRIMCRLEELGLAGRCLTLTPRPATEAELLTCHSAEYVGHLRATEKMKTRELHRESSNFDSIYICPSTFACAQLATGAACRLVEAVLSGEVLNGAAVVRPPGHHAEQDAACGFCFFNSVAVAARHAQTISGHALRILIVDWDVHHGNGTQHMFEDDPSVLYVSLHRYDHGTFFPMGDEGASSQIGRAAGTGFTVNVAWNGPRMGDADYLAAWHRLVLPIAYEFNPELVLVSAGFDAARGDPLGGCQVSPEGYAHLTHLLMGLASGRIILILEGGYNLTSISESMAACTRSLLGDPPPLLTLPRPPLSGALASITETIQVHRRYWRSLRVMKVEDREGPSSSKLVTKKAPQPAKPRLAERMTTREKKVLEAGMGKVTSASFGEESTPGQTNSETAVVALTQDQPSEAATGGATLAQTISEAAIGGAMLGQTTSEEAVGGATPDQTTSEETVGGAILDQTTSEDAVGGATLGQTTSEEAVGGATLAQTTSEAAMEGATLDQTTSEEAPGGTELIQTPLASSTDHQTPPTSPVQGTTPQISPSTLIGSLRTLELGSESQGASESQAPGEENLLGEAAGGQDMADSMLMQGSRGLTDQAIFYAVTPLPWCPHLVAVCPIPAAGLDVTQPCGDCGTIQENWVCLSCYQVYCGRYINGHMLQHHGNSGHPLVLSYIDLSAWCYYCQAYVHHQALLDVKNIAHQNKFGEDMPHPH
As to conditions: for pIC50: read-out: IC50; call rule not given here.

Assay [2] addresses T2, Histone deacetylase 8 (Homo sapiens, UniProt Q9BY41).
T2 sequence (Q9BY41 whole entry): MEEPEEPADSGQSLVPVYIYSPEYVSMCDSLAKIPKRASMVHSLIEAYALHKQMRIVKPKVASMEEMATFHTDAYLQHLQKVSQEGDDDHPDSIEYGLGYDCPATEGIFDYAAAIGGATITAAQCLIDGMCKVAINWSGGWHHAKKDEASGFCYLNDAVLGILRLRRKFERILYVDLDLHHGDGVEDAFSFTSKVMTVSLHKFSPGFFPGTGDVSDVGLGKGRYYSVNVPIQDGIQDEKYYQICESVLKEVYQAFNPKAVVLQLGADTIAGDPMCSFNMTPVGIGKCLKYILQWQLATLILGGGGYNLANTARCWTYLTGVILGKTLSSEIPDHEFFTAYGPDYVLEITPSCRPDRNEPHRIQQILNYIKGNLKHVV

In another assay the test system is HCT-116. In words: cells. The assay is classed as functional, cell-based. The note with it: Homo sapiens, HCT-116, 72 h.
For the next assay, the system named is A549. In words: cells. As to conditions: Homo sapiens, A549, 72 h. It is filed as functional, cell-based.
The next assay deals with K562. In words: cells. It is filed as functional, cell-based. The note with it: Homo sapiens, K562, 72 h.
Assay [3] concerns the target T2, Histone deacetylase 8. The source holds these as a separate data set.
For assay [4], the system named is U-937. Kind of assay: Induction of cell cycle arrest in human U-937 cells assessed as accumulation of cells in pre-G1 phase at 5 uM for 24 hrs by PI staining based flow cytometric analysis. It is filed as functional. A general note: Flow cytometry measures light scatter and fluorescence of single cells or particles in a stream.
In assay [5] the test system is U-937. Kind of assay: Induction of cell cycle arrest in human U-937 cells assessed as accumulation of cells in G1 phase at 1 to 5 uM for 48 hrs by PI staining based flow cytometric analysis. The assay is classed as functional. As to conditions: dose 1-5 µM.

pIC50: −log10 of the molar value.

Chain of Histone deacetylase 1 (Q13547 whole entry): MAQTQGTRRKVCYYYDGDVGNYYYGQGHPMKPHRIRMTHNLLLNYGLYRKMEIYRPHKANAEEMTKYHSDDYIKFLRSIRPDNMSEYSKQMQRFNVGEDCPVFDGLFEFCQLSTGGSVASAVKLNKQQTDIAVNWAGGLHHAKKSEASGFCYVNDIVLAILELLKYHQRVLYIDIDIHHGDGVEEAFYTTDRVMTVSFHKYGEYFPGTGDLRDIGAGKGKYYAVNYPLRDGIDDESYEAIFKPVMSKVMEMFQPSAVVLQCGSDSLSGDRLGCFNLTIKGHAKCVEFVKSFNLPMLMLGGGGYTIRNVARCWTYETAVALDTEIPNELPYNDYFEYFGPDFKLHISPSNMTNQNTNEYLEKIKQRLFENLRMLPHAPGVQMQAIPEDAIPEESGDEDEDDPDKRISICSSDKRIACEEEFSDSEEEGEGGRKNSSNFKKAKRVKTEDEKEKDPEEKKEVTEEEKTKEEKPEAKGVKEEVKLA
Chain of Histone deacetylase 4 (P56524 whole entry): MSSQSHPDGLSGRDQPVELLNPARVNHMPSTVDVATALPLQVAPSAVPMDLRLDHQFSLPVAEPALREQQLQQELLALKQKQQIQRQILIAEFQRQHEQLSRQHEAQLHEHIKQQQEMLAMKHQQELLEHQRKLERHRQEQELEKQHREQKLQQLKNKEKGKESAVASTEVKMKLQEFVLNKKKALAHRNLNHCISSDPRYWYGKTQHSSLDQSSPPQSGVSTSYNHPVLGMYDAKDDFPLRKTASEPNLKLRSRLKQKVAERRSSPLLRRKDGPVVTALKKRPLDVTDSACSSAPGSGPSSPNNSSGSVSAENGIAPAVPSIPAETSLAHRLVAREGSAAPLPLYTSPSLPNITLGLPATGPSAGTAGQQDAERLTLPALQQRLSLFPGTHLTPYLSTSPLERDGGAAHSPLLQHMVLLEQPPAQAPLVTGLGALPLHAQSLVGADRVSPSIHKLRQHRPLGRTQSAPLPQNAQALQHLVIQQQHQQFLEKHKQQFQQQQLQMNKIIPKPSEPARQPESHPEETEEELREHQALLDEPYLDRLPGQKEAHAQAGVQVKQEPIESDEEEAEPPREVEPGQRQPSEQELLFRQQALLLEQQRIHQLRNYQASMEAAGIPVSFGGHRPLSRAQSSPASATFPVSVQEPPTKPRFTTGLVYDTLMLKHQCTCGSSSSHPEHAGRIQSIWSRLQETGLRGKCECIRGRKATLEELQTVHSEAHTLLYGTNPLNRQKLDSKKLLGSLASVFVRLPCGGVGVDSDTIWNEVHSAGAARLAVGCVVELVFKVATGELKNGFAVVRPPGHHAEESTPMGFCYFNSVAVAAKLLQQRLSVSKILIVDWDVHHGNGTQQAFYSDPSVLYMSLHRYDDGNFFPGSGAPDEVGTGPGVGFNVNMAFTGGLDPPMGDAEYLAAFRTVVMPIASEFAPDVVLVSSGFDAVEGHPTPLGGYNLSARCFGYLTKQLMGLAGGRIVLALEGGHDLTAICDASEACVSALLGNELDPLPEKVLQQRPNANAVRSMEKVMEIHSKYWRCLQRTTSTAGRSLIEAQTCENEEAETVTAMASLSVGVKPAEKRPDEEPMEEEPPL
Chain of Histone deacetylase 3 (O15379 whole entry): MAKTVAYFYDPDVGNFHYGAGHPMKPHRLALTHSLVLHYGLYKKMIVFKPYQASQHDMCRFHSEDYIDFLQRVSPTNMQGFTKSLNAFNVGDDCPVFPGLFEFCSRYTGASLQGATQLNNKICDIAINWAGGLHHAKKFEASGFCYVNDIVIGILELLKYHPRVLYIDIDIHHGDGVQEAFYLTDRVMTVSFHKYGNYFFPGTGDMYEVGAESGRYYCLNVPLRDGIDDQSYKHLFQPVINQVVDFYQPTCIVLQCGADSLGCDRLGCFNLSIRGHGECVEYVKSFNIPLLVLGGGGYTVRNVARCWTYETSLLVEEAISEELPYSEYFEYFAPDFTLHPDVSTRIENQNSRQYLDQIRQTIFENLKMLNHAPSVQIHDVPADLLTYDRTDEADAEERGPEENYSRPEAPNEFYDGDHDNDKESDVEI

One may read the pIC50 as the IC50 on a negative log10 scale, so that one unit is a factor of ten. Consider `O=C(Cc1ccccc1)Nc1ccc(C(=O)NO)nc1`, for which the pIC50 against Histone deacetylase 1 was 5.52; on Histone deacetylase 3, 5.69; at Histone deacetylase 4, 4.08; in assay [1], 6.76; against Histone deacetylase 8 [2], 5.96.

As for `O=C(Cc1cccc2ccccc12)Nc1ccc(C(=O)NO)nc1`, the negative logarithm of the IC50 (pIC50) was 5.55 at Histone deacetylase 1; 5.86 against Histone deacetylase 3; 4.51 on Histone deacetylase 4; 7.24 in assay [1]; 5.74 against Histone deacetylase 8 [2].

For `Nc1ccccc1NC(=O)/C=C/c1ccc(NC(=O)Cc2ccccc2)cn1`, the pIC50 against Histone deacetylase 1 is 6.97; on Histone deacetylase 3 it was 6.65; against Histone deacetylase 8 [2], 4.50. Besides, the IC50 result (on Histone deacetylase 4; in assay [1]) was “Not Active” each time.

With `CC(C)C(C(=O)Nc1ccc(/C=C/C(=O)Nc2ccccc2N)nc1)c1ccccc1` (stereo not given), the negative-log IC50 (pIC50) at Histone deacetylase 1 was 6.82; on Histone deacetylase 3 it was 6.50; with HCT-116, 5.36; with A549, 5.24; in the assay on K562, 5.54; against Histone deacetylase 8 [2], 4.37. For the same molecule, the IC50 result (at Histone deacetylase 4; in assay [1]) was “Not Active” throughout.

`CC(C)C(C(=O)Nc1ccc(C(=O)Nc2ccccc2N)nc1)c1ccccc1` (stereo not given): the pIC50 against Histone deacetylase 1 is 6.48; at Histone deacetylase 3, 6.31; against Histone deacetylase 8 [2] it was 4.12. The IC50 entry (against Histone deacetylase 4; in assay [1]) was “Not Active” in each case.

For the molecule `CC(C)C(C(=O)Nc1ccc(/C=C/C(=O)NO)nc1)c1ccccc1` (stereo not given), the pIC50 was 7.09 at Histone deacetylase 1; 7.55 at Histone deacetylase 3; 4.80 at Histone deacetylase 4; 8.00 in assay [1]; 6.59 with HCT-116; 6.23 in the assay with A549. The pIC50 in the assay with K562 is 6.74; at Histone deacetylase 8 [2] it was 6.77.

For `O=C(/C=C/c1ccc(NC(=O)Cc2ccc3ccccc3c2)cn1)NO`, the negative logarithm of the IC50 (pIC50) against Histone deacetylase 1 is 6.42; against Histone deacetylase 3, 6.77; on Histone deacetylase 4, 4.75; in assay [1], 6.95; with HCT-116, 6.68; with A549, 6.22. The pIC50 in the assay on K562 is 6.89; at Histone deacetylase 8 [2], 6.00.

On to `CCC(C(=O)Nc1ccc(/C=C/C(=O)NO)nc1)c1ccccc1` (stereo not given), for which the pIC50 was 7.11 on Histone deacetylase 1; 7.44 at Histone deacetylase 3; 4.77 on Histone deacetylase 4; 7.96 in assay [1]; 6.98 against Histone deacetylase 8 [2].

Take `Nc1ccccc1NC(=O)/C=C/c1ccc(NC(=O)Cc2cccc3ccccc23)cn1`: the pIC50 at Histone deacetylase 1 was 7.20; against Histone deacetylase 3, 6.58; with HCT-116 it was 5.08; in the assay with A549, 5.03; in the assay with K562 it was 5.50. Further, the IC50 entry (against Histone deacetylase 4; in assay [1]; against Histone deacetylase 8 [3]) was “Not Active” in each case.

As for `O=C(NO)c1ccc(NC(=O)C(Cc2ccccc2)c2ccccc2)cn1` (stereo not given), the negative-log IC50 (pIC50) was 6.11 on Histone deacetylase 1; 6.82 at Histone deacetylase 3; 4.41 at Histone deacetylase 4; 7.80 in [1]; 5.98 in the assay with HCT-116; 5.58 with A549. Besides, the negative logarithm of the IC50 (pIC50) in the assay on K562 is 6.31; at Histone deacetylase 8 [2] it was 5.96.

For `CCC(C(=O)Nc1ccc(/C=C/C(=O)Nc2ccccc2N)nc1)c1ccccc1` (stereo not given), the pIC50 against Histone deacetylase 1 was 6.84; against Histone deacetylase 3, 6.57; against Histone deacetylase 8 [2], 4.45. Moreover, the IC50 entry (against Histone deacetylase 4; in [1]) was “Not Active” throughout.

In the case of `Nc1ccccc1NC(=O)/C=C/c1ccc(NC(=O)Cc2ccc3ccccc3c2)cn1`, the pIC50 against Histone deacetylase 1 is 6.69; against Histone deacetylase 3, 6.38; in the assay with HCT-116, 5.49; in the assay on A549, 5.13; with K562, 5.77; on Histone deacetylase 8 [2], 4.11. Moreover, the IC50 result (against Histone deacetylase 4; in [1]) was “Not Active” throughout.

For `CCC(C(=O)Nc1ccc(C(=O)NO)nc1)c1ccccc1` (stereo not given), the pIC50 is 5.83 against Histone deacetylase 1; 6.11 against Histone deacetylase 3; 4.11 on Histone deacetylase 4; 7.29 in assay [1]; 5.77 in the assay with HCT-116; 5.26 in the assay on A549. In addition, the pIC50 in the assay on K562 was 5.75; at Histone deacetylase 8 [2], 6.02.

In the case of `Nc1ccccc1NC(=O)c1ccc(NC(=O)Cc2ccccc2)cn1`, the pIC50 was 6.70 on Histone deacetylase 1; 6.61 against Histone deacetylase 3; 6.25 with HCT-116; 5.87 in the assay with A549; 6.27 in the assay with K562; 4.11 at Histone deacetylase 8 [2]. The IC50 entry (against Histone deacetylase 4; in [1]) was “Not Active” in each case.

For `Nc1ccccc1NC(=O)/C=C/c1ccc(NC(=O)C(Cc2ccccc2)c2ccccc2)cn1` (stereo not given), the pIC50 against Histone deacetylase 1 was 6.30; at Histone deacetylase 3, 6.22; with HCT-116, 5.56; in the assay with A549 it was 5.37; with K562, 5.73. For the same molecule, the IC50 result (against Histone deacetylase 4; in assay [1]; at Histone deacetylase 8 [3]) was “Not Active” in each case.

As for `CC(C)C(C(=O)Nc1ccc(C(=O)NO)nc1)c1ccccc1` (stereo not given), the negative logarithm of the IC50 (pIC50) is 6.00 against Histone deacetylase 1; 6.17 against Histone deacetylase 3; 4.20 on Histone deacetylase 4; 7.39 in assay [1]; 5.88 in the assay with HCT-116; 5.43 in the assay with A549. Also, the negative-log IC50 (pIC50) with K562 is 5.98; against Histone deacetylase 8 [2] it was 6.05.

With `O=C(Cc1ccc2ccccc2c1)Nc1ccc(C(=O)NO)nc1`, the pIC50 against Histone deacetylase 1 is 4.03; against Histone deacetylase 3, 6.68; at Histone deacetylase 4 it was 4.80; in assay [1], 6.91; at Histone deacetylase 8 [2], 6.01.

Turning to `Nc1ccccc1NC(=O)c1ccc(NC(=O)Cc2cccc3ccccc23)cn1`, the pIC50 was 6.89 on Histone deacetylase 1, 6.54 at Histone deacetylase 3 and 4.01 against Histone deacetylase 8 [2]. In addition, the IC50 result (against Histone deacetylase 4; in assay [1]) was “Not Active” throughout.

With `O=C(/C=C/c1ccc(NC(=O)Cc2ccccc2)cn1)NO`, the negative-log IC50 (pIC50) against Histone deacetylase 1 is 7.17; on Histone deacetylase 3 it was 7.11; on Histone deacetylase 4 it was 4.71; in [1], 7.89; in the assay on HCT-116, 6.06; with A549, 5.53. Also, the negative-log IC50 (pIC50) with K562 is 6.04; against Histone deacetylase 8 [2] it was 6.74.

Consider `CCC(C(=O)Nc1ccc(C(=O)Nc2ccccc2N)nc1)c1ccccc1` (stereo not given), for which the values for the pIC50 against Histone deacetylase 1, on Histone deacetylase 3 and against Histone deacetylase 8 [2] were 6.49, 6.36 and 4.18, respectively. Also, the IC50 result (against Histone deacetylase 4; in assay [1]) was “Not Active” each time.

`O=C(CCCCCCC(=O)Nc1ccccc1)NO` [VORINOSTAT]: the Activity in the assay with U-937 [4] turned out to be 10%; in the assay on U-937 [5], 70%.
